Results as given in paper PMC3418399 (Molecular microbiology, 2012).
Non-standard residues stand in square brackets, D forms with d.

Key:
TM5 (CaCdr1p V674F) = assay: MIC, liquid microdilution; assay type: cell-based, Saccharomyces cerevisiae; details: 48 h
EL1/TM2 (CaCdr1p G547R) = assay: MIC, liquid microdilution; assay type: cell-based, Saccharomyces cerevisiae; details: 48 h
EL4-2 (CaCdr1p Q1226R) = assay: MIC, liquid microdilution; assay type: cell-based, Saccharomyces cerevisiae; details: 48 h
AD/pABC3 (Control) = assay: MIC, liquid microdilution; assay type: cell-based, Saccharomyces cerevisiae; details: 48 h
EL4-1 (CaCdr1p Q1226K) = assay: MIC, liquid microdilution; assay type: cell-based, Saccharomyces cerevisiae; details: 48 h
EL6 (CaCdr1p Q1445R) = assay: MIC, liquid microdilution; assay type: cell-based, Saccharomyces cerevisiae; details: 48 h
EL3 (CaCdr1p Q714K) = assay: MIC, liquid microdilution; assay type: cell-based, Saccharomyces cerevisiae; details: 48 h
[1] = tested on: AD/CDR1 (Wild type CaCdr1p); assay: MIC, liquid microdilution; assay type: cell-based, Saccharomyces cerevisiae; details: 48 h
Cdr1p ATPase = Cdr1p ATPase (Candida albicans, UniProt P43071); assay: CaCdr1p ATPase inhibition assay; assay type: biochemical; details: read-out: IC50 Cdr1p ATPase; wild type CaCdr1p, oligomycin-sensitive ATPase, pH 7.5
Chain of Cdr1p ATPase (P43071 whole entry): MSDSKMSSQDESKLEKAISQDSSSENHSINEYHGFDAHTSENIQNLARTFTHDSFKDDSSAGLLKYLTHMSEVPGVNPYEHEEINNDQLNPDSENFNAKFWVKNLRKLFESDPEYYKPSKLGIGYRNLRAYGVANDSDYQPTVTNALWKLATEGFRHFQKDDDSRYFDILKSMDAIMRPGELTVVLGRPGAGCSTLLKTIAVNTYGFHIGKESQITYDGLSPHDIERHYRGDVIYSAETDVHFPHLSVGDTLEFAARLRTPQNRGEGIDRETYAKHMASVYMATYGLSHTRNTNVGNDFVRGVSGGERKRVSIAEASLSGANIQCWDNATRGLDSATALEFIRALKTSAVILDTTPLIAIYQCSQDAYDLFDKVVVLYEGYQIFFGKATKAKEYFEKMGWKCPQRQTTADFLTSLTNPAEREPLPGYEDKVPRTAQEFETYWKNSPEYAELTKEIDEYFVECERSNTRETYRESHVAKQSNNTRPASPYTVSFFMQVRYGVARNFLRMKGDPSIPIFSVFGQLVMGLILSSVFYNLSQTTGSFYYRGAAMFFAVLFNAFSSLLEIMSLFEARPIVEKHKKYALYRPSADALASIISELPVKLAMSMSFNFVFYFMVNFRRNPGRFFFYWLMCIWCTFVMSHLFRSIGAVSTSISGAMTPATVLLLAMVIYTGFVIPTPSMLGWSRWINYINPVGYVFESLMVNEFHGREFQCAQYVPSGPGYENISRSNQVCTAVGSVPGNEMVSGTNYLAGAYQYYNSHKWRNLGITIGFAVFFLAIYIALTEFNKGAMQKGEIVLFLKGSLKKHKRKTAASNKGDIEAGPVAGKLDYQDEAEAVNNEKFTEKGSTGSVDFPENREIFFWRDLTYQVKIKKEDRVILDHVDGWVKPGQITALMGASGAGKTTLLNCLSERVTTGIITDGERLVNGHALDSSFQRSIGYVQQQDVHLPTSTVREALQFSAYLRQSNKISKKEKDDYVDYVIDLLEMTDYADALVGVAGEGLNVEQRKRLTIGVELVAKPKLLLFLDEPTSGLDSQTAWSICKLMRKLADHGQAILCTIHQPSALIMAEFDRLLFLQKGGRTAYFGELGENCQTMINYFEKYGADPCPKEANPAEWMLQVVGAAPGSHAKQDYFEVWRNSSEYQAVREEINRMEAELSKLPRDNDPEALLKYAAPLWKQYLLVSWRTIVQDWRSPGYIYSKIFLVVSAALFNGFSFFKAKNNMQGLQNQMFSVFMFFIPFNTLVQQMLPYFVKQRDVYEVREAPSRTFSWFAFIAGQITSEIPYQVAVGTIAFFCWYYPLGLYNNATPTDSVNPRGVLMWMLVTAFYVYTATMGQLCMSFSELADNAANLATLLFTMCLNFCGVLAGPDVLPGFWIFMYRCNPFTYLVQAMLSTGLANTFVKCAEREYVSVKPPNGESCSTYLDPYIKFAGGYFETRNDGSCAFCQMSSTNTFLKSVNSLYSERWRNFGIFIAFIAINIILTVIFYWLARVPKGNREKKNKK

Pma1p ATPase = biological target: T1, Pma1p ATPase (Saccharomyces cerevisiae, UniProt P05030); assay: Pma1p ATPase assay; assay type: biochemical; details: read-out: IC50 Pma1p ATPase; pH 7.0, 10 μM oligomycin
T1 sequence (P05030 1-918): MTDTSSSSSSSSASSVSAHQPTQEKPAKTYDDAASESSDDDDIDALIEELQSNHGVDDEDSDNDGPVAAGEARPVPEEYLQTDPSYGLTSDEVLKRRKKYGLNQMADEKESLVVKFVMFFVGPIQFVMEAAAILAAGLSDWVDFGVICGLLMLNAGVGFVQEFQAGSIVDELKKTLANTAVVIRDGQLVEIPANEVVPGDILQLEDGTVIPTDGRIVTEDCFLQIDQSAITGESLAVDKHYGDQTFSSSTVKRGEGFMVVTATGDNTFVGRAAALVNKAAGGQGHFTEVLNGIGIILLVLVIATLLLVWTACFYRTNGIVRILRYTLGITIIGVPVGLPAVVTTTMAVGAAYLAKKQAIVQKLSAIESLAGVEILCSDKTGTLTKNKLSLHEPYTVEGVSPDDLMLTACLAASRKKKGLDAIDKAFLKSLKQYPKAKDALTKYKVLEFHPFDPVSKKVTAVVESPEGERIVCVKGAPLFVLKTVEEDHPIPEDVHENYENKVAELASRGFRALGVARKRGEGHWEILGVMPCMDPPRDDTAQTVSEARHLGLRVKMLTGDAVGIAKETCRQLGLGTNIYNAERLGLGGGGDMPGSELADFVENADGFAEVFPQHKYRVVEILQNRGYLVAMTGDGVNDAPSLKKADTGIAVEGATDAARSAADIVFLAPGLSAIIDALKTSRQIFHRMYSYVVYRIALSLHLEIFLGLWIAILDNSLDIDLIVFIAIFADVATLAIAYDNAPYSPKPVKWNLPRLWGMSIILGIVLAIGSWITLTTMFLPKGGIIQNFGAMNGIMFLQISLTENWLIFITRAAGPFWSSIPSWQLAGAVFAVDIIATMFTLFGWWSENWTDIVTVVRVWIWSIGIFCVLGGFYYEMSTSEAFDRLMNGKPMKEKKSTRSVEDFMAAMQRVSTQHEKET

[2] = TM5, V674F, milbemycins and micafungin, I95, CSM pH 7.0, 30°C
[3] = EL1/TM2, G547R, milbemycins and micafungin, I95, CSM pH 7.0, 30°C
[4] = EL4-2, Q1226R, milbemycins and micafungin, I95, CSM pH 7.0, 30°C
[5] = AD/pABC3, Control, milbemycins and micafungin, I95, CSM pH 7.0, 30°C
[6] = EL4-1, Q1226K, milbemycins and micafungin, I95, CSM pH 7.0, 30°C
[7] = EL6, Q1445R, milbemycins and micafungin, I95, CSM pH 7.0, 30°C
[8] = EL3, Q714K, milbemycins and micafungin, I95, CSM pH 7.0, 30°C
[9] = AD/CDR1, Wild type, milbemycins and micafungin, I95, CSM pH 7.0, 30°C

CC/N=c1\cc2oc3cc(NCC)c(C)cc3c(-c3ccccc3C(=O)OCC)c-2cc1C [Rhodamine 6G]
MIC (TM5 (CaCdr1p V674F); Saccharomyces cerevisiae, pH 7): 50 µM
MIC (EL1/TM2 (CaCdr1p G547R); Saccharomyces cerevisiae, pH 7): 50 µM
MIC (EL4-2 (CaCdr1p Q1226R); Saccharomyces cerevisiae, pH 7): 50 µM
MIC (AD/pABC3 (Control); Saccharomyces cerevisiae, pH 7): 1 µM
MIC (EL4-1 (CaCdr1p Q1226K); Saccharomyces cerevisiae, pH 7): 50 µM
MIC (EL6 (CaCdr1p Q1445R); Saccharomyces cerevisiae, pH 7): 75 µM
MIC (EL3 (CaCdr1p Q714K); Saccharomyces cerevisiae, pH 7): 75 µM
MIC ([1]; Saccharomyces cerevisiae, pH 7): 75 µM

D-NH2-FFKWQRRR-CONH2
IC50 (Cdr1p ATPase): 2 µM

C/C=C(\C)C(=O)OCC1=C[C@H]2C(=O)O[C@H]3C[C@@H](C/C=C(\C)C[C@@H](C)/C=C/C=C4\CO[C@H]([C@@H]1O)[C@@]42O)O[C@@]1(CC[C@H](C)[C@@H](C)O1)C3 [Milbemycin α20]
MIC (TM5 (CaCdr1p V674F); [2]): >8 µg/mL
MIC (EL1/TM2 (CaCdr1p G547R); [3]): >8 µg/mL
MIC (EL4-2 (CaCdr1p Q1226R); [4]): >8 µg/mL
MIC (AD/pABC3 (Control); [5]): >8 µg/mL
MIC (EL4-1 (CaCdr1p Q1226K); [6]): >8 µg/mL
MIC (EL6 (CaCdr1p Q1445R); [7]): >8 µg/mL
MIC (EL3 (CaCdr1p Q714K); [8]): >8 µg/mL
MIC [1, 9]: >8 µg/mL

C[C@@H](c1ncncc1F)[C@](O)(Cn1cncn1)c1ccc(F)cc1F [Voriconazole]
MIC (TM5 (CaCdr1p V674F); Saccharomyces cerevisiae, pH 7): 4 µg/mL
MIC (EL1/TM2 (CaCdr1p G547R); Saccharomyces cerevisiae, pH 7): 2.5 µg/mL
MIC (EL4-2 (CaCdr1p Q1226R); Saccharomyces cerevisiae, pH 7): 6 µg/mL
MIC (AD/pABC3 (Control); Saccharomyces cerevisiae, pH 7): 0.156 µg/mL
MIC (EL4-1 (CaCdr1p Q1226K); Saccharomyces cerevisiae, pH 7): 2.5 µg/mL
MIC (EL6 (CaCdr1p Q1445R); Saccharomyces cerevisiae, pH 7): 10 µg/mL
MIC (EL3 (CaCdr1p Q714K); Saccharomyces cerevisiae, pH 7): 8 µg/mL
MIC ([1]; Saccharomyces cerevisiae, pH 7): 8 µg/mL

Milbemycin α25
MIC (TM5 (CaCdr1p V674F); [2]): >8 µg/mL
MIC (EL1/TM2 (CaCdr1p G547R); [3]): 8 µg/mL
MIC (EL4-2 (CaCdr1p Q1226R); [4]): >8 µg/mL
MIC (AD/pABC3 (Control); [5]): 8 µg/mL
MIC (EL4-1 (CaCdr1p Q1226K); [6]): 8 µg/mL
MIC (EL6 (CaCdr1p Q1445R); [7]): >8 µg/mL
MIC (EL3 (CaCdr1p Q714K); [8]): >8 µg/mL
MIC [1, 9]: 8 µg/mL

C[C@@H]1C[C@@H]([C@H](O)CC2CC(=O)NC(=O)C2)C(=O)[C@@H](C)C1 [Cycloheximide]
MIC (TM5 (CaCdr1p V674F); Saccharomyces cerevisiae, pH 7): 1 µg/mL
MIC (EL1/TM2 (CaCdr1p G547R); Saccharomyces cerevisiae, pH 7): 0.5 µg/mL
MIC (EL4-2 (CaCdr1p Q1226R); Saccharomyces cerevisiae, pH 7): 1 µg/mL
MIC (AD/pABC3 (Control); Saccharomyces cerevisiae, pH 7): 0.008 µg/mL
MIC (EL4-1 (CaCdr1p Q1226K); Saccharomyces cerevisiae, pH 7): 0.5 µg/mL
MIC (EL6 (CaCdr1p Q1445R); Saccharomyces cerevisiae, pH 7): 2 µg/mL
MIC (EL3 (CaCdr1p Q714K); Saccharomyces cerevisiae, pH 7): 1 µg/mL
MIC ([1]; Saccharomyces cerevisiae, pH 7): 1 µg/mL

OC(Cn1cncn1)(Cn1cncn1)c1ccc(F)cc1F [Fluconazole]
MIC (TM5 (CaCdr1p V674F); Saccharomyces cerevisiae, pH 7): 160 µg/mL
MIC (EL1/TM2 (CaCdr1p G547R); Saccharomyces cerevisiae, pH 7): 100 µg/mL
MIC (EL4-2 (CaCdr1p Q1226R); Saccharomyces cerevisiae, pH 7): 240 µg/mL
MIC (AD/pABC3 (Control); Saccharomyces cerevisiae, pH 7): 0.5 µg/mL
MIC (EL4-1 (CaCdr1p Q1226K); Saccharomyces cerevisiae, pH 7): 80 µg/mL
MIC (EL6 (CaCdr1p Q1445R); Saccharomyces cerevisiae, pH 7): 240 µg/mL
MIC (EL3 (CaCdr1p Q714K); Saccharomyces cerevisiae, pH 7): 240 µg/mL
MIC ([1]; Saccharomyces cerevisiae, pH 7): 240 µg/mL

Milbemycin β9
MIC (TM5 (CaCdr1p V674F); [2]): >8 µg/mL
MIC (EL1/TM2 (CaCdr1p G547R); [3]): >8 µg/mL
MIC (EL4-2 (CaCdr1p Q1226R); [4]): >8 µg/mL
MIC (AD/pABC3 (Control); [5]): 8 µg/mL
MIC (EL4-1 (CaCdr1p Q1226K); [6]): >8 µg/mL
MIC (EL6 (CaCdr1p Q1445R); [7]): >8 µg/mL
MIC (EL3 (CaCdr1p Q714K); [8]): 8 µg/mL
MIC [1, 9]: >8 µg/mL

CN1CCN(CCCN2c3ccccc3Sc3ccc(C(F)(F)F)cc32)CC1 [Trifluoperazine]
MIC (TM5 (CaCdr1p V674F); Saccharomyces cerevisiae, pH 7): 20 µM
MIC (EL1/TM2 (CaCdr1p G547R); Saccharomyces cerevisiae, pH 7): 40 µM
MIC (EL4-2 (CaCdr1p Q1226R); Saccharomyces cerevisiae, pH 7): 40 µM
MIC (AD/pABC3 (Control); Saccharomyces cerevisiae, pH 7): 5 µM
MIC (EL4-1 (CaCdr1p Q1226K); Saccharomyces cerevisiae, pH 7): 40 µM
MIC (EL6 (CaCdr1p Q1445R); Saccharomyces cerevisiae, pH 7): 80 µM
MIC (EL3 (CaCdr1p Q714K); Saccharomyces cerevisiae, pH 7): 40 µM
MIC ([1]; Saccharomyces cerevisiae, pH 7): 40 µM

D-NH2-FFKWQRRR-CONH2 (H-[dF][dF][dK][dW][dQ][dR][dR][dR]-NH2)
IC50 (Pma1p ATPase): 5 µM
